Data from US8921403B2, “Combinations of imazalil and hydroxypyridones” (Janssen Pharmaceutica, NV, priority 2007, dated 2014).

Test system: Staphylococcus aureus (g+) LMG 8064
Test: poison plate assay (bacteria)
Type: cell-based
Settings: LMG8064, 120 h, ppm total active ingredient, Tryptose Agar, 27° C., 70% relative humidity, growth evaluated after five days, ratio % (I) + % (II-a), read-out: MIC-values (minimum inhibitory concentration) in ppm
Text: When the Synergy Index is greater than 1.0, antagonism is indicated. When the SI is equal to 1.0, additivity is indicated.

C=CCOC(Cn1ccnc1)c1ccc(Cl)cc1Cl (stereo not shown) [100 + 0]
MIC: 25 µg/mL
